“Also recorded” adds a separate entry of the source. Residues, ends and D or L forms follow the SMILES beside them. {Stearyl} = n-C18 stearyl group added with a stearyl phosphoramidite

The first data set can be described thus: eLogD by shake flask method in aqueous buffer/octanol mixture. As to conditions: linear peptides, N terminal acetylated and C terminal amide; pH 7.4, octanol-water.
Text: “eLogD,” as used herein, refers to a determination of LogD by shake flask method in aqueous buffer/octanol mixture.
“LogD(pH),” as used herein, refers to a distribution of a compound between aqueous buffer and octanol at a given pH. Unless otherwise stated, the pH is assumed to be 7.4 and be written as LogD.
`CC[C@H](C)[C@H](NC(=O)[C@H](CC(C)C)NC(=O)[C@H](CO)NC(C)=O)C(N)=O` [SLI] (Ac-Ser-Leu-Ile-NH2): the “eLogD (7.4)” value was −0.06.

On to Ac-YTGFL-NH2 [YTGFL], for which the “eLogD (7.4)” value amounted to 0.57.

Turning to `CC(=O)N[C@@H](C)C(=O)N[C@@H](Cc1ccc(O)cc1)C(=O)N[C@@H](CC(C)C)C(N)=O` [AYL] (Ac-Ala-Tyr-Leu-NH2), the “eLogD (7.4)” value is −0.06.

As for `CC(=O)N[C@@H](Cc1c[nH]c2ccccc12)C(=O)NCC(=O)NCC(N)=O` [WGG] (Ac-Trp-Gly-Gly-NH2), the “eLogD (7.4)” value is listed as −0.80.

Take `CC[C@H](C)[C@H](NC(C)=O)C(=O)N[C@@H](Cc1ccccc1)C(=O)N[C@@H](C)C(N)=O` [IFA] (Ac-Ile-Phe-Ala-NH2): the “eLogD (7.4)” value was found to be 0.46.

In the case of `CC[C@H](C)[C@H](NC(C)=O)C(=O)N[C@@H](CCSC)C(=O)N[C@@H](Cc1ccccc1)C(N)=O` [IMF] (Ac-Ile-Met-Phe-NH2), the “eLogD (7.4)” value is reported as 1.25.

Turning to Ac-ALLGF-NH2 [ALLGF], the “eLogD (7.4)” value is recorded as 1.05.

As for `CC[C@H](C)[C@H](NC(=O)[C@H](CCC(=O)O)NC(C)=O)C(=O)N[C@@H](Cc1ccccc1)C(N)=O` [EIF (D718)] (Ac-Glu-Ile-Phe-NH2), the “eLogD (7.4)” value was −2.30.

Consider `CC(=O)N[C@@H](CCCNC(=N)N)C(=O)N[C@@H](Cc1ccccc1)C(=O)N[C@@H](CC(C)C)C(N)=O` [RFL] (Ac-Arg-Phe-Leu-NH2), for which the “eLogD (7.4)” value is −1.12.

A further data set in a line: Reverse phase HPLC of steroids linked to a 220 base pair oligonucleotide (Agilent AdvanceBio Oligonucleotide column). Format: physicochemical. As to conditions: 220 base pair conjugates, acetonitrile/10 mM ammonium acetate gradient. On the procedure:
HPLC purified 20 base pair single stranded oligomers operatively linked to alkyl or steroid ligands were transformed into a double stranded 220 base pair gene via polymerase chain reaction (PCR). The oligomers operatively linked to alkyl or steroid ligands and a 20 base pair reverse oligomer (1 uM) were used as PCR primers in a 100 uL reaction with 10 ng of double stranded 220 base pair gene template with 2× Fusion Flash High-Fidelity PCR Master Mix (ThermoFisher F548S). Thermocycling was performed at 98 C.° for 10 s, followed by 10 cycles of 98 C°, 1 s, 55 C°, 5 s, 72 C°, 10 s then followed by an additional protocol of 98 C.° for 10 s followed by 15 cycles of 98 C°, 1 s, 50 C°, 5 s, 72 C°, 10 s. PCR products of 220 base pair were confirmed via gel electrophoresis, purified with the QIAquick PCR Purification Kit (Qiagen) and DNA concentration was quantified via nanodrop A260 measurements.
Compounds 18-24, prepared as described in Example 10 from the analogous 20 base pair oligomers were run on a reverse phase HPLC column, using an Agilent AdvanceBio Oligonucleotide column and acetonitrile/ammonium acetate gradient. […] Without wishing to be bound by theory, inclusion of appropriate standard compounds may provide useful surrogates of absolute values of log D. It should be also noted that chromLogD and Chrom20LogD may be determined by extensions of the above experiment.
For acetate, the “resolution / elution by reversed phase HPLC” value is “eluting in the void volume”.

A further data set is described as follows: Gel mobility on standard agarose gel without vesicles. Format: physicochemical. To be noted: ligand attached to 5′ end of DNA; 1.5% agarose, no vesicles; FIG. 1. The protocol:
Low melt agarose gels (standard 1× TBE, 1.5% agarose), without vesicles were prepared by conventional methods (Molecular Cloning: a Laboratory Manual, T. Maniatis, E. F. Fritsch & J. Sambrook (1982)).
After the gels have solidified, samples are loaded, run at 100 volts, stained with ethidium bromide and photographed by standard methods (Molecular Cloning; Maniatis et al.; Cold Spring Harbor press, 1982).
For “Compound 1: stearyl (n-C18H37) group attached to 5′ end of DNA oligonucleotide X (SEQ. ID. No. 1) (DNA GCTCGTCGCATTCGGCACGC; DNA, 5' {Stearyl}, backbone and methylation of C not given here; further chemistry not fully specified)”, the “mobility on standard agarose gel” value is listed as “modestly retarded”.

Another data set in a line: Gel mobility on agarose gel containing 0.9% CTAB/SOS vesicles. To be noted: ligand attached to 5′ end of DNA; 1.5% agarose, 0.9% (w/v) CTAB/SOS vesicles; relative to reference gels lacking vesicles; FIG. 2. Format: physicochemical. On the procedure:
Vesicles are prepared essentially as described by Pascoe et al., Electrophoresis 2003, 24: 4227-4240. Briefly, 0.45 gm of CTAB/SOS (CTAB=hexadecyltrimethylammonium bromide, Sigma catalogue #H9151; SOS=sodium octyl sulfate. Sigma catalogue #O4003)) at a ratio of 3:7 is dissolved in 1× TBE [Trisma-borate-EDTA electrophoresis buffer, Maniatis et al., p. 454] and heated to 50° C. in a water bath to assure dissolution. The solution is cooled overnight to room temperature and then filtered through a 0.2 micron filter. Vesicles prepared in this manner are reported to be stable for multiple days at room temperature.
Low melting agarose (0.75 gm) is dissolved in 25 mL 1× TBE and placed in a water bath at 50° C. along with a separate tube of vesicles. After equilibrium is reached, the tubes are mixed in a preheated flask, gently swirled and poured into a standard horizontal mini-gel apparatus to provide a vesicle agarose gel ((standard 1× TBE, 1.5% agarose, 0.9%). […]
FAM is 5′-6-FAM (Fluorescein). The 6-FAM moiety is comprised of a single isomer derivative of fluorescein and is the most commonly used fluorescent dye attachment for oligonucleotides and is compatible with most fluorescence detection equipment. It becomes protonated and has decreased fluorescence below pH 7; it is typically used in the pH range 7.5-8.5. […]
For “Compound 1: stearyl (n-C18H37) group attached to 5′ end of DNA oligonucleotide X (SEQ. ID. No. 1) (DNA GCTCGTCGCATTCGGCACGC; DNA, 5' {Stearyl}, backbone and methylation of C not given here; further chemistry not fully specified)”, the “mobility on agarose gel with vesicles” value is “greatly retard the mobility; also recorded: retarded”.

(Values after US20170153257A1, “METHODS OF ESTIMATING LOGD OF TAGGED COMBINATORIAL LIBRARY COMPOUNDS” (DiCE Molecules SV, LLC, priority 2015, published 2017).)
